# Measurements reported in US20110002843A1, “METHOD OF DETECTING MYOCARDIAL DYSFUNCTION IN PATIENTS HAVING A HISTORY OF ASTHMA OR BRONCHOSPASM” (priority 2005, published 2011).
# Assay: Pulmonary responses and safety in human subjects with mild, intermittent asthma (single-blind and double-blind parts)
# Assay type: in vivo
# Conditions: for FEV1 (L) Mean % Change from Baseline (SD) / FEV1 (L) Mean (SD) / FVC Mean % Change from Baseline (SD) / FVC Mean (SD) / changes from baseline in mean FEV1, FEV1 (% predicted), FEF25%-75%, FVC / subjects with treatment-emergent AEs / FEF25%-75% Mean % Change from Baseline (SD) / FEF25%-75% Mean (SD) / FEV1 (% predicted) Mean % Change from Baseline (SD) / FEV1 (% predicted) Mean (SD): single-blind
# Method: Methodology: The study consisted of 2 parts, a Single-Blind Part and a Double-Blind Part. The dose escalating, Single-Blind Part enrolled subjects with mild, intermittent asthma and consisted of 3 sequentially enrolled dosing cohorts with 8 subjects per cohort, such that Dosing Cohorts 1, 2 and 3 received binodenoson target doses of 0.5 μg/kg, 1.0 μg/kg and 1.5 μg/kg, respectively. All 8 subjects in a dosing cohort must have completed dosing at the assigned dose and a medical review of each cohort must have been acceptable before enrollment in the next cohort began. The Double-Blind Part was initiated only if the medical review of all safety data from the Single-Blind Part was acceptable. In the Double Blind Part, subjects with mild, intermittent asthma were randomly assigned in a 2:1 ratio to receive either binodenoson 1.5 μg/kg (n=40 planned) or placebo control (n=20 planned).
# Both study parts were comprised of Screening, Treatment and Follow-Up Visits. The Screening Visit occurred 7 to 14 days before the Treatment Visit and consisted of a physical examination, medical history and application of inclusion and exclusion criteria. Subjects were instructed to measure peak expiratory flow (PEF) and asthma symptoms during a period of at least 7 days prior to the Treatment Visit. Subjects were to continue to meet all Screening eligibility criteria at the Treatment Visit and forced expiratory volume in 1 second (FEV1) was to remain within 80% of predicted for subjects to be eligible for dosing. All subjects enrolled in the Single-Blind Part and subjects randomized to receive binodenoson in the Double-Blind Part received 3 intravenous (IV) injections during the Treatment Visit: (1) placebo; (2) a low, challenge binodenoson dose to detect potential hypersensitivity reactions; and (3) an assigned binodenoson test dose. Subjects randomized to receive placebo in the Double Blind Part received 3 placebo injections. The Follow-Up Visit occurred 2 to 4 days following the Treatment Visit.
# Eligible subjects were males or non-pregnant, nonlactating females ≧18 years of age weighing <350 pounds with a medical history of mild, intermittent asthma (as defined in the “Guidelines for the Diagnosis and Management of Asthma” prepared by the National Institutes of Health [NIH]) within 6 months of Screening.
# Subjects were not eligible for the study if they had resting sitting systolic blood pressure (SBP)<100 or >140 mmHg, diastolic blood pressure (DBP)<60 or >90 mmHg, pulse rate >95 beats per minute (bpm), or a lower limit FEV1 at rest of <80% of the predicted value at Screening.
# Dose and Mode of Administration: A stock solution of binodenoson (25 μg/mL) was administered as a bolus injection over 30 seconds (0.1 μg/kg=0.004 mL/kg of stock solution, 0.5 μg/kg=0.02 mL/kg of stock solution, 1.0 μg/kg=0.04 mL/kg of stock solution and 1.5 μg/kg=0.06 mL/kg of stock solution).
# Duration of Treatment: Each subject received three 30-second bolus IV injections separated by ≧90 minutes in both the Single Blind and Double-Blind Parts of the study.
# Criteria for Evaluation: The primary safety endpoint was clinically significant bronchoconstriction, defined as a ≧20% decrease in FEV1 from the predrug baseline following binodenoson administration. Other safety assessments included need for rescue medication, regular measurements of pulmonary function (FEV1 [% predicted], forced vital capacity [FVC] and forced expiratory flow during the middle half of the FVC [FEF25%-75%]), vital signs, pulse oximetry, physical examination findings, electrocardiogram (ECG) results, clinical laboratory results and adverse events.
# Statistical Methods: All data collected in the study were summarized by treatment (placebo; 0.1 μg/kg binodenoson challenge; or 0.5, 1.0, or 1.5 μg/kg binodenoson) and study Part (Single-Blind or Double-Blind with univariate summaries). Continuous variables were summarized with descriptive statistics (n, mean, median, standard deviation [SD] and minimum and maximum). […]
# [1] = Cohort 3, second injection 0.1 μg/kg iv bolus, 90 minutes
# [2] = third injection 0.5 μg/kg iv bolus, 5 min
# [3] = third injection 0.5 μg/kg iv bolus, 15 min
# [4] = third injection 0.5 μg/kg iv bolus, 45 min
# [5] = third injection 0.5 μg/kg iv bolus, 90 min
# [6] = third injection 1.0 μg/kg iv bolus, 5 min
# [7] = third injection 1.0 μg/kg iv bolus, 15 min
# [8] = third injection 1.0 μg/kg iv bolus, 45 min
# [9] = third injection 1.0 μg/kg iv bolus, 90 min
# [10] = third injection 1.5 μg/kg iv bolus, 5 min
# [11] = third injection 1.5 μg/kg iv bolus, 15 min
# [12] = third injection 1.5 μg/kg iv bolus, 45 min
# [13] = third injection 1.5 μg/kg iv bolus, 90 min
smiles,measurement,setting,value
"Nc1nc(N/N=C/C2CCCCC2)nc2c1ncn2[C@@H]1O[C@H](CO)[C@@H](O)[C@H]1O (stereo in doubt) [Binodenoson, 2-{2-[(Cyclohexyl)methylene]hydrazino}adenosine]",FEV1 (L) Mean % Change from Baseline (SD),[1],0.901 (2.441) %
same,FEV1 (L) Mean (SD),[1],3.343 (0.657) L
same,FVC Mean % Change from Baseline (SD),[1],−0.163 (0.894) %
same,FVC Mean (SD),[1],4.334 (0.850)
same,"changes from baseline in mean FEV1, FEV1 (% predicted), FEF25%-75%, FVC",after binodenoson 0.1 μg/kg injection,No clinically significant changes from baseline
same,subjects with treatment-emergent AEs,binodenoson 0.1 μg/kg,No subjects experienced treatment-emergent AEs
same,subjects with treatment-emergent AEs,third injection 0.5 μg/kg,25%
same,FEF25%-75% Mean % Change from Baseline (SD),[2],−3.549 (6.717) %
same,FEF25%-75% Mean (SD),[2],3.111 (0.915)
same,FEV1 (% predicted) Mean % Change from Baseline (SD),[2],−2.3 (3.4) %
same,FEV1 (% predicted) Mean (SD),[2],92.6 (12.5) % predicted
same,FEV1 (L) Mean % Change from Baseline (SD),[2],−2.327 (3.977) %
same,FEV1 (L) Mean (SD),[2],3.995 (0.820) L
same,FVC Mean % Change from Baseline (SD),[2],−1.162 (2.708) %
same,FVC Mean (SD),[2],5.581 (1.151)
same,FEF25%-75% Mean % Change from Baseline (SD),[3],−1.773 (3.375) %
same,FEF25%-75% Mean (SD),[3],3.169 (0.885)
same,FEV1 (% predicted) Mean % Change from Baseline (SD),[3],−0.9 (2.1) %
same,FEV1 (% predicted) Mean (SD),[3],94.0 (11.9) % predicted
same,FEV1 (L) Mean % Change from Baseline (SD),[3],−0.967 (2.171) %
same,FEV1 (L) Mean (SD),[3],4.049 (0.800) L
same,FVC Mean % Change from Baseline (SD),[3],−0.033 (1.645) %
same,FVC Mean (SD),[3],5.640 (1.130)
same,FEF25%-75% Mean % Change from Baseline (SD),[4],−2.338 (5.471) %
same,FEF25%-75% Mean (SD),[4],3.158 (0.899)
same,FEV1 (% predicted) Mean % Change from Baseline (SD),[4],−1.5 (2.1) %
same,FEV1 (% predicted) Mean (SD),[4],93.4 (11.7) % predicted
same,FEV1 (L) Mean % Change from Baseline (SD),[4],−1.455 (2.494) %
same,FEV1 (L) Mean (SD),[4],4.034 (0.821) L
same,FVC Mean % Change from Baseline (SD),[4],−0.838 (3.371) %
same,FVC Mean (SD),[4],5.591 (1.122)
same,FEF25%-75% Mean % Change from Baseline (SD),[5],−3.732 (9.304) %
same,FEF25%-75% Mean (SD),[5],3.106 (0.892)
same,FEV1 (% predicted) Mean % Change from Baseline (SD),[5],−2.0 (3.4) %
same,FEV1 (% predicted) Mean (SD),[5],92.9 (12.5) % predicted
same,FEV1 (L) Mean % Change from Baseline (SD),[5],−2.365 (3.864) %
same,FEV1 (L) Mean (SD),[5],4.000 (0.840) L
same,FVC Mean % Change from Baseline (SD),[5],−0.963 (3.579) %
same,FVC Mean (SD),[5],5.600 (1.196)
same,subjects with treatment-emergent AEs,third injection 1.0 μg/kg,50%
same,FEF25%-75% Mean % Change from Baseline (SD),[6],2.938 (17.701) %
same,FEF25%-75% Mean (SD),[6],3.571 (1.546)
same,FEV1 (% predicted) Mean % Change from Baseline (SD),[6],−0.1 (5.7) %
same,FEV1 (% predicted) Mean (SD),[6],93.5 (11.5) % predicted
same,FEV1 (L) Mean % Change from Baseline (SD),[6],−0.071 (5.830) %
same,FEV1 (L) Mean (SD),[6],3.889 (0.883) L
same,FVC Mean % Change from Baseline (SD),[6],0.316 (3.947) %
same,FVC Mean (SD),[6],5.106 (1.192)
same,FEF25%-75% Mean % Change from Baseline (SD),[7],1.896 (7.770) %
same,FEF25%-75% Mean (SD),[7],3.534 (1.364)
same,FEV1 (% predicted) Mean % Change from Baseline (SD),[7],0.0 (3.8) %
same,FEV1 (% predicted) Mean (SD),[7],93.6 (13.0) % predicted
same,FEV1 (L) Mean % Change from Baseline (SD),[7],0.113 (3.892) %
same,FEV1 (L) Mean (SD),[7],3.899 (0.884) L
same,FVC Mean % Change from Baseline (SD),[7],−0.138 (3.728) %
same,FVC Mean (SD),[7],5.078 (1.156)
same,FEF25%-75% Mean % Change from Baseline (SD),[8],7.715 (11.942) %
same,FEF25%-75% Mean (SD),[8],3.759 (1.554)
same,FEV1 (% predicted) Mean % Change from Baseline (SD),[8],0.6 (6.3) %
same,FEV1 (% predicted) Mean (SD),[8],94.3 (16.4) % predicted
same,FEV1 (L) Mean % Change from Baseline (SD),[8],0.344 (6.156) %
same,FEV1 (L) Mean (SD),[8],3.926 (1.012) L
same,FVC Mean % Change from Baseline (SD),[8],−1.792 (6.201) %
same,FVC Mean (SD),[8],5.020 (1.300)
same,FEF25%-75% Mean % Change from Baseline (SD),[9],9.498 (11.643) %
same,FEF25%-75% Mean (SD),[9],3.830 (1.595)
same,FEV1 (% predicted) Mean % Change from Baseline (SD),[9],2.6 (4.5) %
same,FEV1 (% predicted) Mean (SD),[9],96.3 (15.9) % predicted
same,FEV1 (L) Mean % Change from Baseline (SD),[9],2.406 (4.249) %
same,FEV1 (L) Mean (SD),[9],4.005 (0.983) L
same,FVC Mean % Change from Baseline (SD),[9],−0.051 (2.348) %
same,FVC Mean (SD),[9],5.105 (1.262)
same,subjects with treatment-emergent AEs,third injection 1.5 μg/kg,75%
same,FEF25%-75% Mean % Change from Baseline (SD),[10],2.411 (12.016) %
same,FEF25%-75% Mean (SD),[10],2.880 (0.584)
same,FEV1 (% predicted) Mean % Change from Baseline (SD),[10],0.4 (2.6) %
same,FEV1 (% predicted) Mean (SD),[10],91.6 (8.1) % predicted
same,FEV1 (L) Mean % Change from Baseline (SD),[10],0.336 (2.702) %
same,FEV1 (L) Mean (SD),[10],3.344 (0.610) L
same,FVC Mean % Change from Baseline (SD),[10],0.031 (2.871) %
same,FVC Mean (SD),[10],4.334 (0.845)
same,FEF25%-75% Mean % Change from Baseline (SD),[11],2.110 (5.540) %
same,FEF25%-75% Mean (SD),[11],2.890 (0.645)
same,FEV1 (% predicted) Mean % Change from Baseline (SD),[11],−0.5 (2.0) %
same,FEV1 (% predicted) Mean (SD),[11],90.8 (7.8) % predicted
same,FEV1 (L) Mean % Change from Baseline (SD),[11],−0.380 (2.306) %
same,FEV1 (L) Mean (SD),[11],3.330 (0.666) L
same,FVC Mean % Change from Baseline (SD),[11],−1.335 (2.366) %
same,FVC Mean (SD),[11],4.281 (0.882)
same,FEF25%-75% Mean % Change from Baseline (SD),[12],−1.475 (6.450) %
same,FEF25%-75% Mean (SD),[12],2.803 (0.705)
same,FEV1 (% predicted) Mean % Change from Baseline (SD),[12],−0.4 (2.3) %
same,FEV1 (% predicted) Mean (SD),[12],90.9 (7.9) % predicted
same,FEV1 (L) Mean % Change from Baseline (SD),[12],−0.439 (2.820) %
same,FEV1 (L) Mean (SD),[12],3.331 (0.682) L
same,FVC Mean % Change from Baseline (SD),[12],−0.179 (2.938) %
same,FVC Mean (SD),[12],4.326 (0.872)
same,FEF25%-75% Mean % Change from Baseline (SD),[13],0.469 (2.514) %
same,FEF25%-75% Mean (SD),[13],2.851 (0.654)
same,FEV1 (% predicted) Mean % Change from Baseline (SD),[13],0.6 (1.3) %
same,FEV1 (% predicted) Mean (SD),[13],91.9 (7.4) % predicted
same,FEV1 (L) Mean % Change from Baseline (SD),[13],0.617 (1.762) %
same,FEV1 (L) Mean (SD),[13],3.365 (0.680) L
same,FVC Mean % Change from Baseline (SD),[13],0.537 (2.460) %
same,FVC Mean (SD),[13],4.358 (0.878)
same,"changes from baseline in mean FEV1, FEV1 (% predicted), FEF25%-75%, FVC","third injection (0.5, 1.0, 1.5 μg/kg)",no clinically significant changes from baseline
same,"deaths, serious AEs, premature discontinuations due to AEs",whole study,"no deaths, serious AEs, or premature discontinuations due to AEs"
same,"laboratory evaluations, ECG, pulse oximetry",whole study,No clinically meaningful results
